# Legend:
# Assay type in all cases: functional, cell-based
# MCF7 = test: Antiproliferative activity against human MCF7 cells assessed as reduction in cell viability measured after 24 hrs by MTT assay; conditions: MCF7, 24 h
# Raji = test: Antiproliferative activity against human Raji cells assessed as reduction in cell viability measured after 24 hrs by MTT assay
# A2780S = test: Antiproliferative activity against human A2780S cells assessed as reduction in cell viability measured after 24 hrs by MTT assay
# HeLa = test: Antiproliferative activity against human HeLa cells assessed as reduction in cell viability measured after 24 hrs by MTT assay
# NCI-H460 = test: Antiproliferative activity against human NCI-H460 cells assessed as reduction in cell viability measured after 24 hrs by MTT assay; conditions: NCI-H460, 24 h
SMILES,IC50 (MCF7),IC50 (Raji),IC50 (A2780S),IC50 (HeLa),IC50 (NCI-H460)
Cn1cccc1CNc1cc2c(cn1)[nH]c1ccccc12,> 500 nM,> 500 nM,> 500 nM,> 500 nM,500 nM
Fc1cccc(Oc2cccc(CNc3cc4c(cn3)[nH]c3ccccc34)c2)c1,59 nM,42 nM,41 nM,71 nM,50 nM
c1ccc2c(c1)[nH]c1cnc(NCC3CCCCC3)cc12,> 500 nM,> 500 nM,> 500 nM,> 500 nM,> 500 nM
COc1ccc(Oc2cccc(CNc3cc4c(cn3)[nH]c3ccccc34)c2)cc1OC,432 nM,383 nM,264 nM,266 nM,> 500 nM
CC(=O)Nc1ccc(Oc2cccc(CNc3cc4c(cn3)[nH]c3ccccc34)c2)cc1,27 nM,15 nM,11 nM,67 nM,31 nM
CC(=O)Nc1cccc(Oc2cccc(CNc3cc4c(cn3)[nH]c3ccccc34)c2)c1,76 nM,45 nM,58 nM,83 nM,74 nM
CSc1ccc(Oc2cccc(CNc3cc4c(cn3)[nH]c3ccccc34)c2)cc1,> 500 nM,> 500 nM,> 500 nM,> 500 nM,> 500 nM
CCCCOc1cccc(CNc2cc3c(cn2)[nH]c2ccccc23)c1,> 500 nM,> 500 nM,> 500 nM,> 500 nM,> 500 nM
COc1cccc(Oc2cccc(CNc3cc4c(cn3)[nH]c3ccccc34)c2)c1,109 nM,178 nM,148 nM,219 nM,313 nM
c1cc(CNc2cc3c(cn2)[nH]c2ccccc23)cc(Oc2ccc3c(c2)OCCO3)c1,> 500 nM,> 500 nM,> 500 nM,> 500 nM,> 500 nM
CC(C)(C)CC(C)(C)c1ccc(Oc2cccc(CNc3cc4c(cn3)[nH]c3ccccc34)c2)cc1,> 500 nM,> 500 nM,> 500 nM,> 500 nM,> 500 nM
COc1ccc(CNc2cc3c(cn2)[nH]c2ccccc23)cn1,> 500 nM,> 500 nM,> 500 nM,> 500 nM,> 500 nM
c1ccc(-c2cccc(CNc3cc4c(cn3)[nH]c3ccccc34)c2)cc1,> 500 nM,> 500 nM,> 500 nM,> 500 nM,> 500 nM
CCOc1cccc(CNc2cc3c(cn2)[nH]c2ccccc23)c1,> 500 nM,> 500 nM,> 500 nM,> 500 nM,> 500 nM
CC(C)CNc1cc2c(cn1)[nH]c1ccccc12,> 500 nM,> 500 nM,> 500 nM,> 500 nM,> 500 nM
COc1cc2c(c(OC)c1OC)-c1ccc(OC)c(=O)cc1[C@@H](NC(C)=O)CC2 [COLCHICINE],–,18 nM,–,16 nM,12 nM
c1cc(CNc2cc3c(cn2)[nH]c2ccccc23)cc(OC2CCCC2)c1,> 500 nM,> 500 nM,> 500 nM,> 500 nM,> 500 nM
COc1cc(Oc2cccc(CNc3cc4c(cn3)[nH]c3ccccc34)c2)cc(OC)c1OC,> 500 nM,> 500 nM,> 500 nM,> 500 nM,> 500 nM
CC(C)=CCNc1cc2c(cn1)[nH]c1ccccc12,> 500 nM,382 nM,> 500 nM,> 500 nM,> 500 nM
CC(C)=CCOc1cccc(CNc2cc3c(cn2)[nH]c2ccccc23)c1,> 500 nM,> 500 nM,> 500 nM,> 500 nM,> 500 nM
c1cc2ccc3cccc4c(CNc5cc6c(cn5)[nH]c5ccccc56)cc(c1)c2c34,> 500 nM,> 500 nM,> 500 nM,> 500 nM,> 500 nM
Clc1ccccc1Oc1cccc(CNc2cc3c(cn2)[nH]c2ccccc23)c1,19 nM,59 nM,43 nM,63 nM,74 nM

# More lines, now with the values ahead:
IC50 (MCF7),IC50 (Raji),IC50 (A2780S),IC50 (HeLa),IC50 (NCI-H460),SMILES
> 500 nM,> 500 nM,> 500 nM,> 500 nM,> 500 nM,CCCNc1cc2c(cn1)[nH]c1ccccc12
59 nM,32 nM,62 nM,57 nM,52 nM,Cc1ccccc1Oc1cccc(CNc2cc3c(cn2)[nH]c2ccccc23)c1
> 500 nM,> 500 nM,> 500 nM,> 500 nM,> 500 nM,c1ccc(COc2cccc(CNc3cc4c(cn3)[nH]c3ccccc34)c2)cc1
> 500 nM,> 500 nM,> 500 nM,> 500 nM,> 500 nM,c1ccc(-c2ccc(Oc3cccc(CNc4cc5c(cn4)[nH]c4ccccc45)c3)cc2)cc1
39 nM,57 nM,55 nM,56 nM,165 nM,Cc1ccc(Oc2cccc(CNc3cc4c(cn3)[nH]c3ccccc34)c2)cc1
> 500 nM,> 500 nM,> 500 nM,> 500 nM,> 500 nM,CC(C)COc1cccc(CNc2cc3c(cn2)[nH]c2ccccc23)c1
49 nM,31 nM,45 nM,51 nM,62 nM,c1ccc(Oc2cccc(CNc3cc4c(cn3)[nH]c3ccccc34)c2)cc1
33 nM,20 nM,12 nM,19 nM,67 nM,COc1ccc(Oc2cccc(CNc3cc4c(cn3)[nH]c3ccccc34)c2)cc1
> 500 nM,> 500 nM,> 500 nM,> 500 nM,> 500 nM,CCCOc1cccc(CNc2cc3c(cn2)[nH]c2ccccc23)c1
73 nM,43 nM,63 nM,93 nM,87 nM,c1ccc2c(c1)[nH]c1cnc(NCc3ccsc3)cc12
93 nM,16 nM,73 nM,59 nM,105 nM,Fc1ccccc1Oc1cccc(CNc2cc3c(cn2)[nH]c2ccccc23)c1
> 500 nM,> 500 nM,> 500 nM,> 500 nM,> 500 nM,c1cc(CNc2cc3c(cn2)[nH]c2ccccc23)cc(OC2CCC2)c1
513 nM,220 nM,175 nM,> 500 nM,340 nM,CCCCNc1cc2c(cn1)[nH]c1ccccc12
64 nM,119 nM,78 nM,93 nM,234 nM,c1cc(CNc2cc3c(cn2)[nH]c2ccccc23)cc(Oc2ccc3ncccc3c2)c1
> 500 nM,> 500 nM,> 500 nM,> 500 nM,> 500 nM,c1ccc2c(CNc3cc4c(cn3)[nH]c3ccccc34)c[nH]c2c1
397 nM,242 nM,92 nM,> 500 nM,> 500 nM,c1ccc2c(c1)[nH]c1cnc(NC3CCCC3)cc12
> 500 nM,> 500 nM,> 500 nM,> 500 nM,> 500 nM,c1ccc2c(CNc3cc4c(cn3)[nH]c3ccccc34)cccc2c1
424 nM,257 nM,> 500 nM,412 nM,> 500 nM,c1csc(CNc2cc3c(cn2)[nH]c2ccccc23)c1
> 500 nM,> 500 nM,> 500 nM,> 500 nM,> 500 nM,c1cc(CNc2cc3c(cn2)[nH]c2ccccc23)cc(OCC2CC2)c1
> 500 nM,> 500 nM,> 500 nM,500 nM,> 500 nM,N#Cc1cccc(Oc2cccc(CNc3cc4c(cn3)[nH]c3ccccc34)c2)c1
> 500 nM,> 500 nM,> 500 nM,> 500 nM,> 500 nM,N#Cc1ccccc1Oc1cccc(CNc2cc3c(cn2)[nH]c2ccccc23)c1
71 nM,73 nM,93 nM,66 nM,342 nM,c1ccc2c(c1)[nH]c1cnc(NCc3ccoc3)cc12
> 500 nM,> 500 nM,> 500 nM,> 500 nM,> 500 nM,c1ccc2ncc(CNc3cc4c(cn3)[nH]c3ccccc34)cc2c1
> 500 nM,500 nM,> 500 nM,> 500 nM,> 500 nM,COc1ccccc1Oc1cccc(CNc2cc3c(cn2)[nH]c2ccccc23)c1
> 500 nM,> 500 nM,> 500 nM,> 500 nM,> 500 nM,COc1ccc(COc2cccc(CNc3cc4c(cn3)[nH]c3ccccc34)c2)cc1
153 nM,333 nM,229 nM,209 nM,333 nM,c1cncc(Oc2cccc(CNc3cc4c(cn3)[nH]c3ccccc34)c2)c1
48 nM,74 nM,73 nM,45 nM,222 nM,Clc1ccc(Oc2cccc(CNc3cc4c(cn3)[nH]c3ccccc34)c2)cc1
47 nM,29 nM,44 nM,41 nM,44 nM,Cc1cccc(Oc2cccc(CNc3cc4c(cn3)[nH]c3ccccc34)c2)c1
> 500 nM,> 500 nM,> 500 nM,> 500 nM,> 500 nM,c1ccc2cc(CNc3cc4c(cn3)[nH]c3ccccc34)ccc2c1
> 500 nM,> 500 nM,> 500 nM,> 500 nM,> 500 nM,c1ccc(Oc2ccc(Oc3cccc(CNc4cc5c(cn4)[nH]c4ccccc45)c3)cc2)cc1
